Experimental data published in ChEMBL document CHEMBL1201862, “PubChem BioAssay data set” (2004).
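Protocol summary: plate cells (96-well), add compound at 5 concentrations, incubate 48 h, interpolate endpoints linearly. Here, GI50 denotes the concentration required for 50% inhibition of growth.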 Calls of active or inactive are those of the source. Rule as the data show it: active = GI50 up to about 1.1 µM and inactive = higher.

How the values were obtained:
Test in all cases: growth of human tumour cells (NCI), 48 h
PC-3 = test system: PC-3
ACHN = test system: ACHN
SR = test system: SR
KM12 = test system: KM12
MDA-N = test system: MDA-N
HCC 2998 = test system: HCC 2998
OVCAR-3 = test system: OVCAR-3
CCRF-CEM = test system: CCRF-CEM
OVCAR-8 = test system: OVCAR-8
T47D = test system: T47D
SF-539 = test system: SF-539
TK-10 = test system: TK-10
Malme-3M = test system: Malme-3M
HL-60 = test system: HL-60
EKVX = test system: EKVX
MCF7 = test system: MCF7
U-251 = test system: U-251
OVCAR-4 = test system: OVCAR-4
DU-145 = test system: DU-145
SK-MEL-28 = test system: SK-MEL-28

Measured: GI50

COC(=O)C1=C(C)NC2=C(C(=O)c3ccccc32)C1c1cn(-c2ccccc2)nc1-c1ccccc1 (stereo not drawn)
inactive: PC-3 4.36 µM | ACHN 17.2 µM | SR 2 µM | KM12 7.93 µM | MDA-N > 61.7 µM | HCC 2998 13.6 µM | OVCAR-3 > 48.1 µM | CCRF-CEM 23.4 µM | OVCAR-8 > 100 µM | T47D 20.3 µM | SF-539 21.2 µM | TK-10 > 100 µM | Malme-3M > 84.7 µM | HL-60 23.2 µM | EKVX > 42.9 µM | MCF7 26.8 µM | U-251 15.5 µM | OVCAR-4 > 100 µM | DU-145 > 100 µM | SK-MEL-28 96.8 µM

CCOc1cc2oc(C)cc(=O)c2c(OC)c1/C=N/c1ccc(Cn2c(C)nc3ccccc32)cc1
inactive: PC-3 > 100 µM | ACHN > 100 µM | SR > 100 µM | KM12 > 100 µM | MDA-N > 100 µM | HCC 2998 > 100 µM | OVCAR-3 > 100 µM | CCRF-CEM > 100 µM | OVCAR-8 > 100 µM | T47D > 100 µM | SF-539 > 100 µM | TK-10 > 100 µM | Malme-3M > 100 µM | HL-60 > 100 µM | EKVX > 100 µM | MCF7 > 100 µM | U-251 > 100 µM | OVCAR-4 > 100 µM | DU-145 > 100 µM | SK-MEL-28 > 100 µM

CCOP(=O)(OCC)/C(C#N)=C(\C)c1ccco1
inactive: PC-3 > 10 µM | ACHN > 10 µM | SR > 10 µM | KM12 > 10 µM | MDA-N > 10 µM | HCC 2998 > 10 µM | OVCAR-3 > 10 µM | CCRF-CEM > 10 µM | OVCAR-8 > 10 µM | T47D > 10 µM | SF-539 > 10 µM | TK-10 > 10 µM | Malme-3M > 10 µM | HL-60 > 10 µM | EKVX > 10 µM | MCF7 > 10 µM | U-251 > 10 µM | OVCAR-4 > 10 µM | DU-145 > 10 µM | SK-MEL-28 > 10 µM

COc1ccc2cc(-c3nc(N)nc(N4N=C(C)CC4(C)C)n3)c(=N)oc2c1
inactive: PC-3 16.8 µM | ACHN 16.3 µM | SR 13.9 µM | KM12 15.9 µM | MDA-N 17.1 µM | HCC 2998 17.9 µM | OVCAR-3 15.2 µM | CCRF-CEM 16.1 µM | OVCAR-8 23 µM | T47D 15.4 µM | SF-539 16 µM | TK-10 32.6 µM | Malme-3M 16.5 µM | HL-60 19.9 µM | EKVX 26.2 µM | MCF7 16.7 µM | U-251 18.8 µM | OVCAR-4 18 µM | DU-145 15.8 µM | SK-MEL-28 16.9 µM

O=c1[nH]nc(-c2cccc([N+](=O)[O-])c2)[nH]1
inactive: PC-3 > 100 µM | ACHN > 100 µM | SR > 100 µM | KM12 > 100 µM | MDA-N > 100 µM | HCC 2998 > 100 µM | OVCAR-3 > 100 µM | CCRF-CEM > 100 µM | OVCAR-8 > 100 µM | T47D > 100 µM | SF-539 > 100 µM | TK-10 > 100 µM | Malme-3M > 100 µM | HL-60 > 100 µM | EKVX 8.34 µM | MCF7 > 100 µM | U-251 > 100 µM | OVCAR-4 > 100 µM | DU-145 > 100 µM | SK-MEL-28 > 100 µM

Cc1ccc2c(=O)[nH]sc2c1
inactive: PC-3 15.7 µM | ACHN 9.29 µM | SR 3.69 µM | MDA-N 14 µM | HCC 2998 21.2 µM | OVCAR-3 17.8 µM | CCRF-CEM 3.26 µM | OVCAR-8 17.3 µM | T47D 14.8 µM | SF-539 12.6 µM | TK-10 18.4 µM | Malme-3M 20.4 µM | HL-60 13.1 µM | EKVX 14.9 µM | MCF7 17.1 µM | U-251 14.8 µM | OVCAR-4 27.9 µM | DU-145 88.1 µM | SK-MEL-28 17.9 µM

COc1ccc2nc3c(nc2c1)C(C)(C)C=C3c1ccc(Br)cc1
inactive: PC-3 > 100 µM | ACHN > 100 µM | SR > 100 µM | KM12 > 100 µM | MDA-N > 100 µM | HCC 2998 > 100 µM | CCRF-CEM > 100 µM | OVCAR-8 > 100 µM | T47D > 100 µM | SF-539 97.3 µM | TK-10 > 100 µM | Malme-3M > 100 µM | HL-60 > 100 µM | EKVX > 100 µM | MCF7 > 100 µM | U-251 97.9 µM | OVCAR-4 76.9 µM | DU-145 > 100 µM | SK-MEL-28 > 10 µM
